# Assay results: patent US6552006B2, “Immunomodulatory polynucleotides in treatment of an infection by an intracellular pathogen” (The Regents of the University of California, priority 2000, dated 2003)
# Assays:
# M. avium [1] = assay: Growth of M. avium in vivo in C57B1/6 mice, CFU per organ; parameters: species or system Mycobacterium avium; conditions: for viable bacteria in the lungs: week 2
# [2] = system: indoleamine 2,3-dioxygenase (IDO); assay: IDO gene induction in vivo in mice, semi-quantitative RT-PCR; conditions: 50 μg i.v.; after 16 hrs
# M. avium [3] = assay: Attachment and/or invasion of M. avium into mBMDM, CFU immediately after infection; type: cell-based, Mycobacterium avium; conditions: vs cells treated with M-ODN or medium alone
# Protocol: (§1) Alternatively, 5×10^4 mBMDM or hMDM was treated with ISS for 3 days before infection. Macrophages treated with M-ODN or with media alone served as controls. After 3 days, the cells were infected for 2 hrs with M. avium at a macrophage:bacteria ratio of 2:1 for mBMDM or of 1:10 for hMDM, and subsequently cultured in fresh media without antibiotics. To examine attachment and/or invasion of M. avium, the macrophages were lysed immediately after washing, and the number of bacteria were enumerated by the CFU assay. Intracellular growth of M. avium was determined on days 1, 3, and 7 after infection. To account for all the mycobacteria in each group, corresponding lysates were combined and then the number of CFU was determined. To examine the efficacy of anti-mycobacterial treatments, CFU recovered from cells treated with medium alone were considered as 100% growth.
# ISS activate macrophages and induce the expression of surface adhesion molecules such as ICAM-1 (Martin-Orozco, et al. (1999) Int. Immun. 11:1111-1118). These molecules may affect the attachment of M. avium or its invasion into mouse bone marrow-derived macrophages (mBMDM). […]
# M. avium [4] = assay: Intracellular growth of M. avium in human monocyte-derived macrophages (hMDM) in vitro, CFU assay; type: cell-based, Mycobacterium avium; conditions: for enhancement of the anti-mycobacterial effect of clarithromycin: compared to antibiotic alone
# Protocol: A previously studied M. avium strain 13 (Hayashi, et al. (1999) Infect. Immun. 67:3558-3565; Meylan, et al. (1990) Infect. Immun. 58:2564-2568), isolated from an AIDS patient at UCSD, San Diego, Calif., was used in all experiments. The organism was cultured on Middlebrook 7H11 agar (Difco Laboratories, Detroit, Mich.) with OADC enrichment at 37° C. in the presence of 5% CO2 for two weeks. Transparent colonies were selectively picked and further cultured on Middlebrook 7H11 plates for two more weeks. The resulting colonies, which were predominantly transparent (>90%), were then collected and washed two times with phosphate-buffered saline (PBS). The bacteria were finally resuspended in Middlebrook 7H9 broth (Difco Laboratories) and the OD600 of the suspension was adjusted to 0.15-0.2. The suspension was aliquoted and stored at −70° C. until use. The number of organisms/ml of this suspension was determined by the colony forming unit (CFU) assay.
# The number of CFU in a given sample was determined by colony counting as described previously (Ogata, et al. (1992) Infect. Immun. 60:4720-4725). Serial 10-fold dilutions of total cell lysates or tissue homogenates were performed in PBS. 10 μl of each dilution were plated on Middlebrook 7H11 plates supplemented with OADC enrichment. The plates were incubated up to 14 days at 37° C. The number of colonies was counted every alternate day from day 10 onwards until no new colonies appeared. This yielded the number of CFU/10 μl. The number of CFU in each well was then calculated.
# Monocytes were isolated from normal human buffy coats obtained from the San Diego Blood Bank by Ficoll-Hypaque and Percoll gradient centrifugation (Hayashi, et al. (1997) Infect. Immun. 65:5262-5271). Purity of the monocytes by this method was greater than 70%. The monocytes thus isolated were cultured for five to seven days in Iscove's Modified Dulbecco's Medium (BioWhittaker, Walkersville, Md.) supplemented with 10% normal human serum (Irvine Scientific, Santa Ana, Calif.), 2 mM L-glutamine and 50 units/ml penicillin-streptomycin in Teflon beakers to yield human monocyte-derived macrophages (hMDM). These hMDM were further enriched by adherence to the wells of tissue culture plates before use in experiments. Purity of hMDM after the second adherence assessed by esterase staining was >95%. Viability determined by trypan blue exclusion was >97%.
# hMDM (6×10^4) were, adhered to the wells of 96-well tissue culture plates for two hours and non-adherent cells were removed by washing with warm RPMI-1640. Adherent cells were treated with ISS at 3, 10, or 30 μg/ml for 72 h before infection with M. avium. Cells treated with M-ODN at 10 μg/ml or with media alone served as controls. After 72 h, the cells were washed two times and infected with M. avium in RPMI-1640 supplemented with 5% heat-inactivated fetal bovine serum (FBS, Irvine Scientific) at a cell:bacteria ratio of 1:5-1:10. On days 1, 3 and 7 after infection, the total number of colony forming units (CFU) in each well was determined. The supernatant was collected and set aside and the adherent cells were lysed. To account for all the mycobacteria in each well, corresponding lysates and supernatants were combined and used to determine the number of CFU. Experiments were done in triplicate and results were expressed as mean±SD of CFU per well.
# as §1, with “To account for all the mycobacteria in each group, corresponding lysates were combined and then the number of CFU was determined. To examine the efficacy of anti-mycobacterial treatments, CFU recovered from cells treated with medium alone were considered as 100% growth.” left out
# [5] = ISS 3 days before i.v. infection, 10^7 organisms/mouse, four weeks after infection, vs M-ODN and PBS mice
substance,measurement,setting,value
5′-TGACTGTGAACGTTCGAGATGA-3′ (SEQ ID NO:1) [ISS],growth of M. avium in the therapeutic model,"M. avium [1]; C57B1/6 mice, 10^7 CFU i.v., ISS-ODN 50 μg/mouse alone one week after infection, 5 weeks after infection",did not inhibit the growth of M. avium
same,viable bacteria in the lungs,"M. avium [1]; ISS 100 μg/mouse i.d. 3 days before infection, 10^6 organisms/mouse, vs PBS",significantly lower number of viable bacteria
same,"difference of CFU in the lungs, controls vs ISS-treated mice",M. avium [1]; [5],1 log
same,"difference of CFU in the spleen, controls vs ISS-treated mice",M. avium [1]; [5],2 logs
same,number of bacteria in the spleen,"M. avium [1]; ISS i.d. 3 days before infection, 10^6 organisms/mouse, vs PBS, effects maximal at 4 weeks",almost two logs lower number of bacteria
same,CFU in the spleen,"M. avium [1]; ISS pretreatment, 10^6 organisms/mouse, week 6, vs PBS",equaled that observed in the control mice
same,bacterial load in the lungs,"M. avium [1]; ISS pretreatment, 10^6 organisms/mouse, week 6, vs control mice",exceeded that found in the lungs of control mice
same,bacterial loads in the liver,"M. avium [1]; ISS pretreatment, 10^6 organisms/mouse, weeks 2, 4, 6, vs PBS",no significant difference
same,bacteria in the spleen,"M. avium [1]; ISS prior to infection, 10^7 organisms/mouse, 4 weeks, vs PBS",nearly two logs less bacteria
same,splenic CFU counts,"M. avium [1]; ISS prior to infection, 10^7 organisms/mouse, 6 weeks, vs control",similar
same,viable bacteria in the lungs,"M. avium [1]; ISS prior to infection, 10^7 organisms/mouse, vs PBS",significantly lower number of viable bacteria
same,mycobacterial loads in the liver,"M. avium [1]; ISS prior to infection, 10^7 organisms/mouse, weeks 2, 4, 6, vs PBS",no significant difference
same,persistence of the protective effect after administration,"M. avium [1]; single injection of ISS, 10^6 organisms/mouse",up to four weeks
same,IDO gene induction in vivo in the liver,[2],not in the liver
same,IDO gene induction in vivo in the lungs and spleen,[2],observed
same,CFU recovered immediately from cells treated before infection (attachment/invasion),M. avium [3],not significantly different
same,decrease of intracellular growth of M. avium,"M. avium [4]; established infection, infected hMDM treated with ISS 10 μg/ml for 7 days",53%
same,inhibition of intracellular growth of M. avium,"M. avium [4]; hMDM (5×10^4/well) treated 3 days before infection, 7 days post-infection (FIG. 4A)",91%
same,inhibition of intracellular growth of M. avium,"M. avium [4]; hMDM pretreated 72 h with 3 μg/ml ISS before infection, day 7, vs medium alone or M-ODN",91.3±1.7%
same,growth inhibition at the higher concentrations of ISS tested,M. avium [4]; hMDM pretreated with 10 or 30 μg/ml vs 3 μg/ml ISS,no further increase in growth inhibition
same,inhibition of growth of M. avium,"M. avium [4]; hMDM, ISS (10 µg/mL) immediately after infection (0 day), CFU at day 7, vs medium alone",53±18%
same,inhibition of growth of M. avium,"M. avium [4]; hMDM, ISS (10 µg/mL) one day after infection (+1 day), CFU at day 7, vs medium alone",36±16%
same,inhibition of intracellular growth of M. avium,"M. avium [4]; hMDM, ISS (10 µg/mL) pretreatment three days before infection (−3 days), CFU at day 7, vs medium alone",51±4%
same,inhibition of intracellular growth of M. avium,"M. avium [4]; infected hMDM, ISS 10 μg/ml alone, day 7",38±7%
same,enhancement of the anti-mycobacterial effect of clarithromycin,"M. avium [4]; infected hMDM, ISS 10 μg/ml with 1 μg/ml clarithromycin, day 7",89±5%
same,enhancement of the anti-mycobacterial effect of clarithromycin,"M. avium [4]; infected hMDM, ISS 10 μg/ml with 4 μg/ml clarithromycin, day 7",63±12%
